# Reference: patent US20040034001A1, “Treatment of hypertension in women receiving hormone replacement therapy” (Schering AG, priority 2002, published 2004)
# Test system: hypertensive postmenopausal women
# Assay: Post hoc analysis of blood pressure in women with elevated BP at baseline, multicenter 1-year endometrium study, no ACE inhibitor
# Type: in vivo, human
# Details: after 11 weeks; subset with baseline systolic BP>=140 mm Hg and or diastolic BP>=90 mm Hg
# Method: Administration of DRSP/E2 to Hypertensive Postmenopausal Women not being Treated with an ACE Inhibitor.
# In a multicenter, double-blind randomized study examining the effect on the endometrium of 1142 postmenopausal women treated for 1 year with 1 of 4 doses of DRSP (0.5,1,2, and 3 mg) compared with E2 alone, mean systolic and diastolic blood pressure decreased from baseline for all treatment groups.
structure (smiles),measurement,value
"C[C@]12CC[C@@H]3c4ccc(O)cc4CC[C@H]3[C@@H]1CC[C@@H]2O [E2, 17-β-estradiol]",mean decrease in systolic blood pressure,−3.7 mm Hg
